# Measured values as given in US20060189693A1, “Methods of treatment with lxr agonists” (priority 2003, published 2006).
# Experiments:
# LXRβ protein = biological target: T1, LXRβ protein (Homo sapiens, UniProt P55055); conditions: 1 μM; over a background reading of 10000 fluorescence units; cited from earlier work
# T1 sequence (P55055 1-460): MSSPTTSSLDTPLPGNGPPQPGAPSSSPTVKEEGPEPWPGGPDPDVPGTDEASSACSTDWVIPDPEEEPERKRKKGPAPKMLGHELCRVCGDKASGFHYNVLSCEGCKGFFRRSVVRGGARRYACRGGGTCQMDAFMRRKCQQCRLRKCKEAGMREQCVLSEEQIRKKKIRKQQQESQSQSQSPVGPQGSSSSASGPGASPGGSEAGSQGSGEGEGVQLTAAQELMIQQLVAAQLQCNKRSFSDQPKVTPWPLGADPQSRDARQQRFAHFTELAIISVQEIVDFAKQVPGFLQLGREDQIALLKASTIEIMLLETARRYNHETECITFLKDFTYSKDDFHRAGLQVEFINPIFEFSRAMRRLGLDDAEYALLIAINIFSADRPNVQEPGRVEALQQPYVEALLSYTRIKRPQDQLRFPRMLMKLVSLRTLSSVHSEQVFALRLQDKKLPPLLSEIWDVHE
# [1] = system: LV mass (cardiac hypertrophy) of aorta-constricted CD-1 mice; test: Effect on LV mass in aorta-constricted mice (Example 3); format: in vivo
# Procedure: Male CD-1 mice (n=7 per group), 20-25 g in weight, were used for the experiment. Each mouse was anaesthetized with isoflurane 1-2%. Each mouse's aorta was exposed between the two renal arteries and was surgically constricted using a 30-gauge needle and 6.0 suture to induce heart growth. Seven days after surgery, baseline echocardiography was performed on each mouse to establish left ventricular mass (“LV mass”). Enalapril, the gold standard in treating cardiac hypertrophy, was orally administered to the mice at the dose of 10 mg/kg beginning on day 11 (4 days after baseline) and was continued once daily for 10 days. The compound of Formula IIa was suspended in 0.5% methylcellulose (MC) solution (vehicle) and was orally administered to the mice at the doses of 10 mg/kg twice a day, beginning on day 11. The control group was administered with vehicle (0.5% MC) beginning on day 11. Repeat echocardiography was conducted on each mouse 14 and 21 days after surgery.
# [2] = system: LV mass (cardiac hypertrophy) of aorta-constricted CD-1 mice; test: Effect on LV mass in aorta-constricted mice, dose range (Example 4); format: in vivo; set-up: unit not given here
# Procedure: Male CD-1 mice (n=7 per group), 20-25 g in weight, were used for the experiment. Each mouse was anaesthetized with isoflurane 1-2%. Each mouse's aorta was exposed between the two renal arteries and was surgically constricted using a 30-gauge needle and 6.0 suture to induce heart growth. Seven days after surgery, baseline echocardiography was performed on each mouse to establish left ventricular mass (“LV mass”). Enalapril was orally administered to the mice at the dose of 10 mg/kg beginning on day 11 (4 days after baseline) and was continued once daily for 10 days. Formula IIa, suspended in 0.5% MC (vehicle), was orally administered to the mice at the doses of 3.0 mg/kg, 10 mg/kg, or 30 mg/kg once a day beginning on day 11. Formula Ia, suspended in 0.5% MC (vehicle), was orally administered to the mice at the dose of 50 mg/kg once a day beginning on day 11. The control group was administered with vehicle (0.5% MC). Repeat echocardiography was conducted on each mouse 14 and 21 days after surgery.
compound,measurement,setting,value
"C[C@H](CC[C@@H]1OC1(C)C)[C@H]1CC[C@H]2[C@@H]3CC=C4C[C@@H](O)CC[C@]4(C)[C@H]3CC[C@]12C [24(S), 25-epoxycholesterol]",reading (fluorescence),LXRβ protein,20000 fluorescence units
"CCOC(=O)[C@H](CCc1ccccc1)N[C@@H](C)C(=O)N1CCC[C@H]1C(=O)O [Enalapril, reference compound]",Mean ± SE LV Mass,"[1]; 10 mg/kg once daily oral from day 11, 14 days after surgery",84.90 ± 1.11
same,LV Mass compared to vehicle,"[1]; 10 mg/kg once daily oral, days 14 and 21, p<0.05",significantly (p<0.05) reduced LV Mass
same,LV Mass compared to baseline hypertrophy (reversal of pathology),"[1]; 10 mg/kg once daily oral, p<0.05",significantly (p<0.05) reversed the pathology
same,Mean ± SE LV Mass,"[1]; Enalapril group 10 mg/kg once daily oral, 7 days after surgery (baseline, before dosing from day 11)",94.09 ± 1.950
same,Mean ± SE LV Mass,"[2]; Enalapril 10 mg/kg once daily oral from day 11, 14 days after surgery",95.1 ± 3.90
same,Mean ± SE LV Mass,"[2]; Enalapril 10 mg/kg once daily oral from day 11, 21 days after surgery",91.4 ± 2.48
same,Mean ± SE LV Mass,"[2]; Enalapril group 10 mg/kg once daily oral, 7 days after surgery (baseline, before dosing)",101.02 ± 2.79
"O=C(O)Cc1cccc(OCCCN(Cc2cccc(C(F)(F)F)c2Cl)CC(c2ccccc2)c2ccccc2)c1 [Formula IIa, 2-(3-{3-[[2-Chloro-3-(Trifluoromethyl)Benzyl](2,2-Diphenylethyl)Amino]Propoxy}-Phenyl)Acetic Acid]",Mean ± SE LV Mass,"[1]; 10 mg/kg BID oral from day 11, 14 days after surgery",99.45 ± 1.98
same,Mean ± SE LV Mass,"[1]; 10 mg/kg BID oral from day 11, 21 days after surgery",100.66 ± 2.43
same,further increase in LV Mass,[1]; 10 mg/kg b.i.d. oral,prevented any further increase in LV Mass
same,LV Mass compared to vehicle,"[1]; 10 mg/kg b.i.d. oral, 14 and 21 days after surgery, p<0.05",statistically significant reduction
same,Mean ± SE LV Mass,"[1]; Formula IIa group 10 mg/kg BID oral, 7 days after surgery (baseline, before dosing from day 11)",100.88 ± 2.77
same,Mean ± SE LV Mass,"[2]; 3 mg/kg once a day oral from day 11, 14 days after surgery",106.75 ± 2.43
same,Mean ± SE LV Mass,"[2]; 3 mg/kg once a day oral from day 11, 21 days after surgery",106.54 ± 2.56
same,Mean ± SE LV Mass,"[2]; 3 mg/kg once a day oral group, 7 days after surgery (baseline, before dosing)",98.9 ± 4.59
same,Mean ± SE LV Mass,"[2]; 10 mg/kg once a day oral from day 11, 14 days after surgery",96.31 ± 2.70
same,Mean ± SE LV Mass,"[2]; 10 mg/kg once a day oral from day 11, 21 days after surgery",95.5 ± 2.97
same,Mean ± SE LV Mass,"[2]; 10 mg/kg once a day oral group, 7 days after surgery (baseline, before dosing)",98.01 ± 2.39
same,Mean ± SE LV Mass,"[2]; 30 mg/kg once a day oral from day 11, 14 days after surgery",101.77 ± 2.25
same,Mean ± SE LV Mass,"[2]; 30 mg/kg once a day oral from day 11, 21 days after surgery",101.99 ± 4.00
same,Mean ± SE LV Mass,"[2]; 30 mg/kg once a day oral group, 7 days after surgery (baseline, before dosing)",102.42 ± 2.27
"O=S(=O)(c1ccccc1)N(CC(F)(F)F)c1ccc(C(O)(C(F)(F)F)C(F)(F)F)cc1 [Formula Ia, N-(2,2,2-Trifluoroethyl)-N-[4-(2,2,2-Trifluoro-1-Hydroxy-1-Trifluoromethyl-Ethyl)-Phenyl]-Benzenesulfonamide]",Mean ± SE LV Mass,"[2]; 50 mg/kg once a day oral from day 11, 14 days after surgery",106.56 ± 3.86
same,Mean ± SE LV Mass,"[2]; 50 mg/kg once a day oral group, 7 days after surgery (baseline, before dosing)",101.85 ± 4.75
